Test results as given in patent US20110288036A1, “Methods for Treating or Preventing Vascular Graft Failure” (priority 2010, published 2011).

How the values were obtained:
THP-1 cells = assay: Cytokine ELISA in PMA/LPS-activated THP-1 cells; assay type: cell-based, human; conditions: PMA then LPS
Experimental: The ability of MMI-0100 ([…]; SEQ ID NO: 1) to inhibit the production of inflammatory cytokines (TNF-α and IL-1β) in vitro was examined using THP-1 cells. Briefly, THP-1 cells were activated with PMA for 24 hours, and treated subsequently with 10 μg of LPS. The amount of inflammatory cytokines (TNF-α and IL-1β, pg/ml) produced in the medium in the presence or absence of increasing concentrations (1 μM, 3 μM, 10 μM, and 30 μM) of MMI-0100 ([…]; SEQ ID NO: 1) was determined by cytokine specific enzyme-linked immunosorbent assay (ELISA). Analysis of inflammatory cytokines (TNF-α and IL-1β) was performed with cytokine-specific ELISA kit (PeproTech, Inc., Rocky Hill, N.J.). The cytokine-specific ELISA employs highly-purified anti-cytokine antibodies (capture antibodies) that are noncovalently adsorbed (“coated”) onto plastic microwell plates. After washings, the immobilized antibodies capture specifically soluble cytokine proteins present in samples applied to the plate. After washing away unbound material, the captured cytokine proteins are detected by biotin-conjugated anti-cytokine antibodies (detection antibodies) followed by an enzyme-labeled avidin or streptavidin reporter. Following addition of a chromogenic (color-developing) substrate-containing solution, the level of colored product generated by the bound, enzyme-linked, detection reagents can be measured spectrophotometrically using an ELISA-plate reader at an appropriate optical density.
In order to prepare plates for ELISA, capture antibodies (anti-TNF-α or anti-IL-1β antibodies) were diluted with PBS to a concentration of 1 μg/ml. 100 μl of each diluted antibody was added immediately to each well of the ELISA plate. […]
The standard was diluted from 2 ng/ml to zero in diluent, and 100 μl of the standard or sample was added immediately to each well in triplicate and incubated at room temperature for at least 2 hours. […] The level of colored product generated by the bound, enzyme-linked, detection reagents was measured spectrophotometrically using an ELISA-plate reader at an appropriate optical density.

[1] = tested on: human saphenous vein (HSV); assay: Human saphenous vein organ culture model of intimal hyperplasia; assay type: cell-based; conditions: for average intimal thickness: control 81.6±17.3, pre-culture 43.7±7.8
Experimental: De-identified, discarded segments of human saphenous vein (HSV) were collected from consented patients undergoing coronary artery or peripheral vascular bypass surgeries. HSV segments were stored in a saline solution until the end of the surgical procedure, at which time they were placed in cold transplant harvest buffer (100 mM potassium lactobionate, 25 mM KH2PO4, 5 mM MgSO4, 30 mM Raffinose, 5 mM Adenosine, 3 mM Glutathione, 1 mM Allopurinol, 50 g/L Hydroxyethyl starch, pH 7.4). The vessels were used within 24 hours of harvest. Using sterile technique, HSV segments were transferred to a 60-mm Petri dish under a sterile hood. The edges (0.5 mm) of each segment were removed with a blade and excess adventitial tissue and fat removed with minimal manipulation. HSV segments were cut into consecutive rings of approximately 1.0 mm in width to be utilized for organ culture or muscle bath experiments. Two rings from each segment were immediately fixed in 10% formalin at 37° C. for 30 min to obtain pre-culture intimal thickening measurements.
After viability was determined in the muscle bath, additional rings were cut and placed in 8-well chamber slides and maintained in RPMI 1640 medium supplemented with 30% FBS, 1% L-glutamine and 1% penicillin/streptomycin for 14 days at 37° C. in an atmosphere of 5% CO2 in air. The rings were either untreated or treated with 10 μM, 50 μM or 100 μM of MMI-0100 peptide ([…] (SEQ ID NO: 1)). The culture medium with treatments was replaced every 2-3 days.
After 14 days of organ culture, vein segments were fixed in 0.5 mL of 10% formalin at 37° C. for 30 minutes and embedded in paraffin for sectioning. Beginning at the mid-portion of each ring, 5 transverse sections, spaced 5 μm apart, were cut for each specimen. Sections were then stained with Verhoeff-van Gieson stain. Each section was examined using light microscopy (Carl Zeiss, Thornwood, N.Y.) and 6 radially parallel measurements of intimal and medial thickness were randomly taken from each section ([…]). Intima was defined as tissue on the luminal side of the internal elastic lamina or the chaotic organization of the cells contained within it, whereas the medial layer was contained between the intimal layer and the external elastic lamina. Intimal and medial thickening was measured for each section at 5× magnification with the microscope's computerized image analysis system.
To this end, rings of human saphenous vein (HSV) were cultured in RPMI medium supplemented with L-glutamine (1%), penicillin/streptomycin (1%), and fetal bovine serum (FBS) (30%) at 5% CO2 and 37° C. for 14 days.
The effect of MMI-0100 ([…]; SEQ ID NO: 1) on development of intimal hyperplasia was further examined in a follow-up study in which intimal thickness of HSV in an organ culture model was measured in the presence of high serum and different concentrations (10-100 μM) of MMI-0100 ([…]; SEQ ID NO: 1). HSV were cultured for 14 days in 30% serum. All veins were deemed viable at the time of culture by adequate contraction with a phenylephrine challenge in a muscle bath. The average intimal thickness of pre-cultured vein segments was 43.7±7.8 μm. After culture, the average intimal thickness of the control was 81.6±17.3 μm. The average intimal thickness in the presence of 50 μM and 100 μM MMI-0100 ([…]; SEQ ID NO: 1) was 42.7±6.0 μm and 50.4±10.7 μm, respectively, with a significant reduction in intimal thickness (FIGS. 10A and 11).

In the case of YARAAARQARAKALARQLGVAA [MMI-0100], the “IL-1β level in the medium” value (THP-1 cells; 30 μM, PMA/LPS alone about 450 pg/ml) is reported as “about 100 pg/ml”, the “TNF-α level in the medium” value (THP-1 cells; 30 μM, PMA/LPS alone about 1000 pg/ml) is reported as “about 300 pg/ml” and the “production of pro-inflammatory cytokines (TNF-α and IL-1β)” value (THP-1 cells; 1, 3, 10 and 30 μM) is reported as “inhibits the production of pro-inflammatory cytokines (i.e., TNF-α and IL-1β) in a dose-dependent manner”. The “mean intimal thickness of HSV in culture” value ([1]; 5 μM or 10 μM, 14 days culture, in contrast to r-HSPB1) was “significantly reduced the mean intimal thickness”, the mean intimal thickness ([1]; 10 μM, 14 days culture) was 14 μm and the average intimal thickness ([1]; 50 μM, 14 days, 30% serum) was 42.7±6.0 μm. For the same sequence, the “intima:media (I:M) ratio” value ([1]; 100 μM, 14 days, 30% serum) was “greater reduction of the I:M ratio” and the average intimal thickness ([1]; 100 μM, 14 days, 30% serum) was 50.4±10.7 μm.
